From patent US12478605B2, “Biochanin a derivatives for treatment of BEST1-related retinopathies” (Universität Regensburg, priority 2020, dated 2025)
Changes are numbered by the printed parent chain.

What was measured:
Assay type in all cases: cell-based
[1] = molecular target: T1, mutant BEST1 R218C (Homo sapiens, UniProt O76090, R218C); assay: YFP-halide transport assay (I- influx), MDCKII cells expressing mutant BEST1-R218C
T1 construct: expressed in transfected cells
T1 sequence (O76090 1-585 R218C): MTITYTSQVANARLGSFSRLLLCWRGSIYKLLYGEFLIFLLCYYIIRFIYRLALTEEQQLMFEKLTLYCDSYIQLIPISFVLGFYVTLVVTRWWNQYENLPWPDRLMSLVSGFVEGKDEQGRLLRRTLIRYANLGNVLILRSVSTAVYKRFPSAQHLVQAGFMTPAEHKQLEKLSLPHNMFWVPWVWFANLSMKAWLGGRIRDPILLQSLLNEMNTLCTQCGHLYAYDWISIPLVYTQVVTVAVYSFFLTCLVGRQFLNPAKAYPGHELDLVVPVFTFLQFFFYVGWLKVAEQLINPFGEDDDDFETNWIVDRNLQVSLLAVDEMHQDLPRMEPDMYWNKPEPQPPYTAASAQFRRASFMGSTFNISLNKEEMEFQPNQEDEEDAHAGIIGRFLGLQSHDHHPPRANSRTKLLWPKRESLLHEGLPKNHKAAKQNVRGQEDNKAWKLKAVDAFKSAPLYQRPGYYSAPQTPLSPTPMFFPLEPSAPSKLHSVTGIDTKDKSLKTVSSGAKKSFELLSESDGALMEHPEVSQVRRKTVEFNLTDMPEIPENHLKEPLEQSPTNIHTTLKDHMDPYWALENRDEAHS
Method: (§1) Human hiPSC-RPE or MDCKII cells were transduced via lentivirus particles which were produced by co-transfecting HEK293T cells with the yellow fluorescence protein (YFPH148Q/I152L)-pLJM1 and helper plasmids pMD2.G and psPAX2 using the Ca^2+ phospate transfection method. After six weeks of cultivation in 96-well black microtiter plates, cells were incubated with 100 mM Cl^− containing solution and basal YFP fluorescence was measured in a Tecan microplate reader. Subsequently Cl^− was replaced with equimolar I^− and decrease of YFP fluorescence intensity was monitored for another 2 min in 10 sec intervals.
(§2) To analyze BEST1-mediated anion transport in the cell lines generated in the previous examples, a well-established halide transport assay (Galietta et al., 2001) was adapted. […] Addition of I— leads to specific YFP quenching over time and changes of fluorescence intensities can be monitored on a plate reader. MDCKII cells were incubated with 100 mM Cl— containing solution and steady state YFP fluorescence signal intensities were measured after 6 minutes. Subsequently, Cl— was replaced by equimolar I— and anion permeability was monitored by decreasing YFP intensities as a result of BEST1-mediated I— influx in a time course up to 2 minutes (FIG. 2B). For several independent BEST1 wildtype cell lines a fast kinetic of decreasing fluorescence intensities to ˜30 to 40% was observed while the untransfected control cell lines remained flat (FIGS. 2C and D).
Example 8—Evaluation of BioA(C2H3O2)2 activity in MDCKII cells MDCKII cells co-expressing YFP and BEST1 wildtype or mutant p.(R218C) were seeded on black 96-well plates and cultivated for 6 days to achieve polarity, a requirement for correct basolateral localization of BEST1 in epithelial cells. Compounds were tested separately at 10 μM concentration in a 96-well format. After compound addition for 24 h, cells were subjected to an inwardly directed I— gradient to drive I— influx and produce decreasing (quenched) fluorescence signals. […]

[2] = molecular target: T2, BEST-Y227N (Homo sapiens, UniProt O76090, Y227N); assay: YFP-halide transport assay (I- influx), MDCKII cells expressing mutant BEST-Y227N; settings: various concentrations from 2 μM to 20 μM, 24 h, FIG. 4C
T2 construct: expressed in transfected cells
T2 sequence (O76090 1-585 Y227N): T1 sequence (O76090 1-585 R218C) with C218R, Y227N

[3] = molecular target: T3, BEST1 wildtype (Homo sapiens, UniProt O76090); assay: YFP-halide transport assay (I- influx), MDCKII cells expressing BEST1 wildtype; settings: MDCKII BEST1 wildtype cell lines; compound addition for 24 h; YFP quenching; FIG. 4B
T3 construct: expressed in transfected cells
T3 sequence (O76090 1-585): T1 sequence (O76090 1-585 R218C) with C218R
Method: as §1
as §2, with “For several independent BEST1 wildtype cell lines a fast kinetic of decreasing fluorescence intensities to ˜30 to 40% was observed while the untransfected control cell lines remained flat (FIGS. 2C and D).” left out

[4] = test system: untransfected MDCKII cells; assay: YFP-halide transport assay (I- influx), untransfected MDCKII controls; settings: compound addition for 24 h, YFP quenching, FIG. 4B
Method: as §1
as §2, with “For several independent BEST1 wildtype cell lines a fast kinetic of decreasing fluorescence intensities to ˜30 to 40% was observed while the untransfected control cell lines remained flat (FIGS. 2C and D).” left out

effect on BEST1 anion transport activity ([1]; MDCKII cells, FIG. 4A, comparison of Biochanin A derivatives): greatest effect | anion transport activity (I- influx) ([1]; MDCKII mutant BEST1-R218C, various concentrations from 2 μM to 20 μM, 24 h, FIG. 4C): strongly | anion transport activity (I- influx) [2]: moderately increased | effect on kinetics of I- influx (anion transport activity) [3]: no or only little effect
SMILES: COc1ccc(-c2coc3cc(OC(C)=O)cc(OC(C)=O)c3c2=O)cc1 [Biochanin A diacetate, 3-(4-Methoxyphenyl)-4oxo-4H-chromene-5,7-diyl diacetate]
effect on kinetics of I- influx (anion transport activity) [4]: no or only little effect
